Experimental data as given in US20250213547A1, “METHODS OF TREATING NEUROLOGICAL DISEASES” (priority 2022, published 2025).
≈ marks a conversion by molar mass, not a printed value.

Molecular target: T1, CH24H (Homo sapiens, UniProt Q9Y6A2)
T1 construct: from tissue; host or cells: brain of living human trial subjects (in vivo)
Experiment: PK/PD (PK/OE/24HC) turnover modeling
Conditions: for BL / IC50 / IGAM / Imax / KOUT: ELEKTRA subjects; for BL: 24HC baseline
Description: Similar to the PK model, the PK/PD model was developed as a population mixed-effects model and incorporated the individual PK parameters from the final PK population model. A turnover model was used to characterize changes in plasma 24HC overtime. Plasma 24HC was considered to be at steady-state baseline (BL) before the start of treatment. […] PK/PD covariates were screened in a procedure similar to the PK covariates. In the final PK/PD model, two covariates, A1-AGLP and body weight affected baseline 24HC.
The PK/PD analysis dataset consisted of 2165 24HC observations from 3 phase I trials. Four subjects from the ELEKTRA study with large IC50 estimates were excluded from the dataset. Additionally, 42 individuals with large conditional weighted residuals were excluded from the dataset. The final dataset contained 2107 24HC observations from 248 subjects. Table 26 summarizes the modeling dataset with reference to example numbers, respective clinical trial ID, subject numbers, regimen, and number of observations and doses. Tables 27 and 28 summarize the categorical covariates used in PK/OE/24HC analysis from the entire dataset and the ELEKTRA study subset, respectively.
Tables 29 and 30 summarize the mean continuous variables used in the PK/OE/24HC covariate analysis from the entire PK/OE/24HC population studied and the ELEKTRA subset, respectively. In addition to the shared variables, the PK/PD dataset contained the individual final estimates of the population PK model parameters (IND_ALAG1, IND_KA, IND_CL, IND_V2, IND_Q, IND_V3, and IND_F1). Subjects without individual PK parameter estimates (e.g. subjects from the placebo arms) were assigned to the respective geometric mean of the estimated individual parameter values.
A turnover model was used to describe changes in 24HC concentration over time. […] The following formula estimates change in 24HC: […]
The indirect exposure effect (EFF) was estimated by an Imax model:
The effect-site concentration was implemented as a delayed equilibrium with the plasma/brain transit rate parameter (KPLBR):
The scaling parameter KPLBR was previously estimated in a competitive enzyme occupancy model derived from PET brain imaging data (NCT02497235, Table 19). Parameters derived from this base model were fixed at their previous final PK population estimates derived from example 12. However, no random effects could be estimated without enzyme occupancy data. FIG. 26 depicts the basic model structure in relation to observed and unobserved data. There was a strong growth-related increase in baseline 24HC levels, which was only observed in young subjects.
The following variables were screened by forward inclusion, backward exclusion F-tests: • Growth/maturity: Weight, BMI, and age • Protein binding: Albumin (ALB), A1-AGLP • Liver function: AST, ALT, GGT, and ALP • Kidney function: Creatinine clearance (CRCL), eGFR • Categorical variables: Asian, sex. Ethnicity, and disease type

T1 sequence (Q9Y6A2 whole entry): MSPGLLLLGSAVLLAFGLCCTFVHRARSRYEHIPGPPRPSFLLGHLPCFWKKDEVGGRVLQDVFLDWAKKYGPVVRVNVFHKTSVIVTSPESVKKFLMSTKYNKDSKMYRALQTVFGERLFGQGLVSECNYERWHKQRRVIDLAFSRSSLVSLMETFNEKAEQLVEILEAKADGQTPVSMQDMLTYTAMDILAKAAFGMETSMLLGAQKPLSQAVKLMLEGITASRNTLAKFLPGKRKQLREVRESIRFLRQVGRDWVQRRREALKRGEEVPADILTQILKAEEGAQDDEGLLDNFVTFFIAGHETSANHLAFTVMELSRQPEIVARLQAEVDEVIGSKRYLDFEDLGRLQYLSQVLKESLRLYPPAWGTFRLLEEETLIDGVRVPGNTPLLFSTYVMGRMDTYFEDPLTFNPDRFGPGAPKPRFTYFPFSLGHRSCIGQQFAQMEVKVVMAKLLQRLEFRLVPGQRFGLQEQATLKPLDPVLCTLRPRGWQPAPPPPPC

SMILES: O=C(c1cccnc1-c1ccncc1)N1CCC(O)(Cc2ccccc2)CC1 [soticlestat]
- KOUT typical value (24HC elimination rate): 0.0215 h⁻¹
- BL (Mean): 96.4 ng/mL
- BL (Median): 84.775 ng/mL
- BL (Range): 31.63 to 303.45 ng/mL
- IC50 (Mean): 12.8 ng/mL (≈ 0.0343 µM)
- IGAM (Mean): 0.83
- Imax (Mean): 93.5%
- KOUT (Mean): 0.022 h⁻¹
- IC50 (Median): 10.06 ng/mL (≈ 0.0269 µM)
- IGAM (Median): 0.83
- Imax (Median): 93.5%
- KOUT (Median): 0.022 h⁻¹
- IC50 (Range): 2.17 to 76 ng/mL
- IGAM (Range): 0.83-0.83
- Imax (Range): 93.5-93.5%
- KOUT (Range): 0.022-0.022 1/h
- maximum inhibition of 24HC synthesis (Imax), typical value (PK/PD turnover model): 93%
- IC50 for 24HC, typical value (PK/PD turnover model, soticlestat concentration): 10.1 ng/mL
- 24HC Baseline (BL): age cut-off (covariate on BL): 21.2 y
- 24HC Baseline (BL) typical value (final PK/OE/24HC model): 50.5 ng/mL
- Enzyme Occupancy: KPLBR plasma-brain rate (final PK/OE/24HC model, fixed): 0.254 h⁻¹
- plasma/brain scaling parameter KPLBR (fixed) (from PET enzyme occupancy model): 0.254 h⁻¹
- Imax typical value (maximum inhibition of 24HC): 93.5%
